Like-named read-outs stand apart in the source and are kept apart here.
How the values were obtained:
[1] = tested on: Rat C6 glioma (ATCC No. CCL107); assay: Anti-inflammatory activity: isoproterenol-induced cAMP synthesis (ELISA); assay type: cell-based; conditions: cAMP after 30 min, induced by (−)-isoproterenol; for IC50: Rattus norvegicus, C6 glioma, 0.5 h, read-out: I50
Method: Anti-inflammatory activity of several of the substituted 6-anilinopurine derivatives of this invention was determined; kinetin was also evaluated as a control. Rat C6 glioma (ATCC No. CCL107) was cultivated in monolayer in serum-free chemically defined medium containing Ham's F10/minimal essential medium (1:1 v/v), 2 mM L-glutamine, 1% (v/v) minimal essential medium vitamins (100×), 1% (v/v) minimal essential medium nonessential amino acids (100×), 100 U/ml penicillin, […], and 30 nM sodium selenite. Incubation was performed at 37° C. in a 100% humidified atmosphere. The assays were performed in the logarithmic growth phase at a density of 2.5×10^5 cells/cm^2. Intracellular cAMP synthesis was induced by addition of 5 mM (−)-isoproterenol; various amounts of test compounds were added at the same time as the (−)-isoproterenol. After 30 min incubation, the cellular amount of cAMP was determined using ELISA (cAMP-enzyme immunoassay kit from Amersham). The I50 values were determined from the dose-response curve in duplicate.

AHK3 = target: T1, AHK3 (Arabidopsis thaliana, UniProt Q9C5U1); assay: Activation of cytokinin receptors (E. coli KMI001 beta-galactosidase reporter); assay type: cell-based; conditions: 28 h incubation; n.a. means no activation
T1 sequence (Q9C5U1 1-1036): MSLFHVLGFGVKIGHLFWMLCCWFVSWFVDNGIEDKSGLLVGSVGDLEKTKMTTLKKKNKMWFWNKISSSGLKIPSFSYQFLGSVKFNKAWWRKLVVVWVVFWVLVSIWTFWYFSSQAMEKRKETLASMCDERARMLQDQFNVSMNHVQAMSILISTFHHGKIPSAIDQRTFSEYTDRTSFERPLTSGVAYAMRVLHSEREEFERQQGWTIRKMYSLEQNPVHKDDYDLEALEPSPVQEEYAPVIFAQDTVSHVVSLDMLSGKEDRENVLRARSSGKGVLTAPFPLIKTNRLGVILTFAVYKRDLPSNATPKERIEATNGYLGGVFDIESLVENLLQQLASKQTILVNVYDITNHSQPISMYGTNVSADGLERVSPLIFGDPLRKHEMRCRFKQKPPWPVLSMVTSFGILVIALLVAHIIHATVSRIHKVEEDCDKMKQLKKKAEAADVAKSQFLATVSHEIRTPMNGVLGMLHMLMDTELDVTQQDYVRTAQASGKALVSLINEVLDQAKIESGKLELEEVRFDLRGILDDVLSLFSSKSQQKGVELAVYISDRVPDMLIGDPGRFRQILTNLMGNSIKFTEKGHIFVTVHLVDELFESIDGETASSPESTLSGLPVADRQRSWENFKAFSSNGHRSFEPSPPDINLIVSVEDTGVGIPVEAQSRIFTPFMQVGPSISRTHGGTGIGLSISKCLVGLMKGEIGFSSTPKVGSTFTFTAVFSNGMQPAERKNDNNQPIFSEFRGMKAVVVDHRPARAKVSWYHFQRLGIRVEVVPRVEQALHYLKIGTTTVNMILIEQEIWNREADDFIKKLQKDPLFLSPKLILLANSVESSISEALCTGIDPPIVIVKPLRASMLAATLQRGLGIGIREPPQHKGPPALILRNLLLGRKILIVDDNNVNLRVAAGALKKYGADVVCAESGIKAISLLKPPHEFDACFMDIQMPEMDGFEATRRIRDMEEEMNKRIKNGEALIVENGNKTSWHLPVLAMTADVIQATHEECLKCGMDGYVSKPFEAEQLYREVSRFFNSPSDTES
Procedure, shortened: (§1)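 E. coli KMI001 carrying the receptor plasmid was grown in M9 + 0.1% casamino acids at 25 °C, diluted 1:600 and treated with compound (stock solutions 10^-7–5×10^-5 M). Supernatant β-galactosidase was read by 4-methylumbelliferyl galactoside hydrolysis (1 h, 37 °C, Na2CO3 stop). EC50 came from dose-response curves, triplicate means.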

recombinant AtCKX2 = target: T2, recombinant AtCKX2 (Arabidopsis thaliana, UniProt Q9FUJ3); assay: Inhibition of cytokinin oxidase/dehydrogenase activity (PMS/MTT microtitre plate assay); assay type: biochemical; conditions: 30 μM iP as substrate, pH 7.4, 37° C.; means of three replicates; read-out: IC50, inhibition of recombinant AtCKX2
T2 sequence (Q9FUJ3 23-501): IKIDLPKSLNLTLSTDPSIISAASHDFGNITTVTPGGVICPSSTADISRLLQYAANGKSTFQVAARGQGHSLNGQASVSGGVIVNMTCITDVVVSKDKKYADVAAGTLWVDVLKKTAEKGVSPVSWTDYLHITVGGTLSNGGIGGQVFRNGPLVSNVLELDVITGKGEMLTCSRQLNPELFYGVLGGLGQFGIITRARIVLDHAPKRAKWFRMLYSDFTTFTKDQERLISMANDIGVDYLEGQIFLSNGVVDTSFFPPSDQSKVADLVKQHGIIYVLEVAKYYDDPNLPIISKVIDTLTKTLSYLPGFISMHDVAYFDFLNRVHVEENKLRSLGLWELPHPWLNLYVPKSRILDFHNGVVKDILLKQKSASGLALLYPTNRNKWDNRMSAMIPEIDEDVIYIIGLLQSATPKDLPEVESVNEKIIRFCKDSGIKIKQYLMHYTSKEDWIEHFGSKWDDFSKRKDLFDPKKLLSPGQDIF
Method: IC50 determinations were done using the assay in microtitre plate. Each well contained 100 μL of PMS/MTT [phenazine methosulfate/3-(4,5-dimethylthiazol-2-yl)-2,5-diphenyltetrazolium bromide] reaction mixture (final concentrations: 0.1 M KH2PO4, pH 7.4, 1 mM MTT, 0.2 mM PMS) containing the tested compound (3×10^−7 M-3×10^−4 M) and 30 μM N^6-isopentenyladenine (iP) as a substrate. 100 μL of cell-free growth medium of S. cerevisiae strain 23344c ura^− harboring the plasmid pYES2-AtCKX2 was directly used as a source of AtCKX2. Plates were incubated in the dark for […] at 37° C. and the enzymatic reaction was stopped by 25 μL of 35% acetic acid. The absorbance at 578 nm was measured using spectrophotometer Tecan. Absorbance of the sample without iP was subtracted.
The IC50 value, the compound concentration that inhibits the enzyme activity to 50%, was calculated from the obtained dose response curves. The values shown in Table 9 are means of three replicates and the entire test was repeated at least twice.

CRE1/AHK4 = CRE1/AHK4 (Arabidopsis thaliana, UniProt Q9C5U0); assay: Activation of cytokinin receptors (E. coli KMI001 beta-galactosidase reporter); assay type: cell-based; conditions: 17 h incubation; n.a. means no activation
Chain of CRE1/AHK4 (Q9C5U0 whole entry): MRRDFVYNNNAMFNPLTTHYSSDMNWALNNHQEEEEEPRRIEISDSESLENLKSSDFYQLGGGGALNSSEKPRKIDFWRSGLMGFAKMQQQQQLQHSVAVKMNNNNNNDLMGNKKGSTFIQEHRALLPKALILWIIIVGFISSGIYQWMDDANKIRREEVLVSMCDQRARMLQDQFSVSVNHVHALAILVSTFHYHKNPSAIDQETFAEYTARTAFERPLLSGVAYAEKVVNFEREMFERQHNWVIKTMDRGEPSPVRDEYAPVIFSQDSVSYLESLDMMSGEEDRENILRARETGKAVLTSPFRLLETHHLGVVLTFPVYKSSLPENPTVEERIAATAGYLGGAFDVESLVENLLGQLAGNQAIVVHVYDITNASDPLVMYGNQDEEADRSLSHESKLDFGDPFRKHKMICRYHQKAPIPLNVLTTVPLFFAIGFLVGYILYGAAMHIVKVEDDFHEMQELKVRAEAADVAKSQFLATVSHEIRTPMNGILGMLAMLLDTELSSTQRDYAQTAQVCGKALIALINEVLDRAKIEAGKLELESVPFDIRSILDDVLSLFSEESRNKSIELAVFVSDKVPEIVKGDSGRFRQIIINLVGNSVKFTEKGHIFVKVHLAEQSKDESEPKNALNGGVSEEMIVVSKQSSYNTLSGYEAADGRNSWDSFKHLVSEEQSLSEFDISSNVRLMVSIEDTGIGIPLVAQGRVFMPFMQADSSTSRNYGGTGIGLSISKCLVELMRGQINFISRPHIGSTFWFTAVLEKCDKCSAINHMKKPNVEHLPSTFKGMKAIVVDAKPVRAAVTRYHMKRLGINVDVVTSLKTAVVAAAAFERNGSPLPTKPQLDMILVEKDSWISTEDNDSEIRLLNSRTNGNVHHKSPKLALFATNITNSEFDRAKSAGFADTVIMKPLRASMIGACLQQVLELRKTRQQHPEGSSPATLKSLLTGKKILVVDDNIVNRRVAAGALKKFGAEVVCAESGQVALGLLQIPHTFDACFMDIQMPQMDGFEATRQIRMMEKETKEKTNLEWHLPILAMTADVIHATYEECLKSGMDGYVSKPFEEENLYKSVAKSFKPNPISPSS
Procedure, shortened: as §1

[2] = tested on: Amaranthus caudatus cotyledon/hypocotyl explants; assay: Amaranthus bioassay (betacyanin content); assay type: cell-based, Amaranthus caudatus var. atropurpurea; conditions: at the concentration with highest activity, relative to 10^−5 M kinetin
Procedure, shortened: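 Etiolated A. caudatus cotyledon/hypocotyl explants (72 h seedlings, roots removed) incubated 48 h at 25 °C in darkness on medium with phosphate buffer pH 6.8, tyrosine and test compound. Betacyanin extracted in acetic acid, quantified as A537−A620.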

[3] = tested on: cytokinin-dependent tobacco callus Nicotiana tabacum L. cv. Wisconsin 38; assay: Tobacco callus biotest (plant cell division); assay type: cell-based; conditions: at the concentration with highest activity, relative to 10^−5 M kinetin
[4] = tested on: osteosarcoma cell line HOS; assay: Calcein AM cytotoxicity assay; assay type: cell-based, human; conditions: Homo sapiens, 72 hours
Excerpt: (§2) Absence of toxic effects against mammalian (especially human) cell lines in a wide concentration range is one of the requirements on compounds intended for use in agriculture and medicine. Because toxic compounds negatively influence metabolic processes in cells, many standard cytotoxicity assays are based on measurement of metabolisation rate of various artificial substrates. Resulting product is then quantified e.g. by means of spectrometry. The assays can be easily modified for use in 96-well plates. For evaluation of cytotoxic effect of compounds of this invention, a microtiter assay based on quantification of metabolisation of Calcein AM was used. The assay is widely used in drug screening programs and in chemosensitivity testing. In live cells, Calcein AM is enzymatically hydrolysed and accumulation of resulting calcein is manifested by green fluorescence.
(§3) Following human cell lines were used for routine screening of the compounds: T-lymphoblastic leukemia cell line CEM, promyelocytic leukemia cell line HL-60, erytroid leukemia cell line K-562, breast carcinoma cell line MCF-7, osteosarcoma cell line HOS and melanoma cell line G-361. Mouse cell lines B16-F10 (melanoma) and NIH-3T3 (fibroblasts) were used as well. The cells were maintained in Nunc/Corning 80 cm^2 plastic tissue culture flasks and cultured in cell culture medium (DMEM with 5 g/l glucose, 2 mM glutamine, 100 U/ml penicillin, 100 μg/ml streptomycin, 10% fetal calf serum and sodium bicarbonate).
(§4) The cell suspensions were prepared and diluted according to the particular cell type and the expected target cell density (2.500-30.000 cells per well based on cell growth characteristics) and pippetted (80 μl) into 96-well plates. Inoculates were allowed a pre-incubation period of 24 hours at 37° C. and 5% CO2 for stabilisation. Tested compound was added in total volume of 20 μl of water at time zero. Usually, test compound was evaluated at six 3-fold dilutions. In routine testing, the highest concentration tested was 166.6 μM. All drug concentrations were tested in triplicates. Incubations of cells with the test compounds lasted for 72 hours at 37° C., in 5% CO2 atmosphere and 100% humidity. At the end of incubation period Calcein AM in PBS was added into final concentration of 1 μg/ml. After another 1 hour of incubation fluorescence (FD) was measured with the Labsystem FIA Reader Fluoroscan Ascent (UK). Growth inhibition (GI) was estimated using the following equitation: GI=(mean FDdrug exposed wells−mean FDblank)/(mean FDcontrol wells−mean FDblank)×100%. The GI50 value, the drug concentration causing 50% reduction of Calcein AM conversion, was calculated from the obtained dose response curves.

NIH-3T3 (fibroblasts) = assay: Calcein AM cytotoxicity assay; assay type: cell-based, Mouse
Excerpt: as §2
(§5) Mouse cell lines B16-F10 (melanoma) and NIH-3T3 (fibroblasts) were used as well. The cells were maintained in Nunc/Corning 80 cm^2 plastic tissue culture flasks and cultured in cell culture medium (DMEM with 5 g/l glucose, 2 mM glutamine, 100 U/ml penicillin, 100 μg/ml streptomycin, 10% fetal calf serum and sodium bicarbonate).
as §4, with “In routine testing, the highest concentration tested was 166.6 μM.” left out, “FDblank)×100%.” for “FDblank)×100%. The GI50 value, the drug concentration causing 50% reduction of Calcein AM conversion, was calculated from the obtained dose response curves.”

[5] = tested on: breast carcinoma cell line MCF-7; assay: Calcein AM cytotoxicity assay; assay type: cell-based, human
Excerpt: as §2, §5
as §4, with “In routine testing, the highest concentration tested was 166.6 μM.” left out, “FDblank)×100%.” for “FDblank)×100%. The GI50 value, the drug concentration causing 50% reduction of Calcein AM conversion, was calculated from the obtained dose response curves.”

[6] = tested on: erytroid leukemia cell line K-562; assay: Calcein AM cytotoxicity assay; assay type: cell-based, human; conditions: Homo sapiens, K562, 72 hours
Excerpt: as §2, §3, §4

[7] = tested on: promyelocytic leukemia cell line HL-60; assay: Calcein AM cytotoxicity assay; assay type: cell-based, human; conditions: read-out: GI50 HL60
Excerpt: as §2, §5
as §4, with “In routine testing, the highest concentration tested was 166.6 μM.” left out, “FDblank)×100%.” for “FDblank)×100%. The GI50 value, the drug concentration causing 50% reduction of Calcein AM conversion, was calculated from the obtained dose response curves.”

[8] = tested on: T-lymphoblastic leukemia cell line CEM; assay: Calcein AM cytotoxicity assay; assay type: cell-based, human; conditions: 72 hours
Excerpt: as §2, §5
as §4, with “In routine testing, the highest concentration tested was 166.6 μM.” left out, “FDblank)×100%.” for “FDblank)×100%. The GI50 value, the drug concentration causing 50% reduction of Calcein AM conversion, was calculated from the obtained dose response curves.”

SMILES: COc1cc(CNc2nc(Cl)nc3nc[nH]c23)cc(OC)c1 [2-chloro-6-(3,5-dimethoxybenzylamino)purine]
- IC50 [1]: 11 µM
- Effect (anti-inflammatory activity) [1]: Inhibition

SMILES: COc1cccc(CNc2nc(Cl)nc3nc[nH]c23)c1 [2-chloro-6-(3-methoxybenzylamino)purine]
- IC50 [1]: 7 µM
- Effect (anti-inflammatory activity) [1]: Inhibition

SMILES: Oc1ccccc1Nc1nc(Cl)nc2nc[nH]c12 [Compound 8, 2-chloro-6-(2-hydroxyanilino)purine]
- IC50 [1]: 25 µM
- Effect (anti-inflammatory activity) [1]: Inhibition
- EC50 (AHK3): 31.7 µM

SMILES: Fc1nc(Nc2ccc(Cl)cc2)c2nc[nH]c2n1 [Compound 43]
- IC50 (recombinant AtCKX2): 27 µM
- EC50 (CRE1/AHK4): 39.8 µM
- EC50 (AHK3): 27 µM
- Activity (%) [10^−5 mol · l^−1 K = 100%] [2]: 102.6%
- Activity (%) [10^−5 mol · l^−1 K = 100%] [3]: 130%

SMILES: Fc1cccc(Nc2nc(F)nc3[nH]cnc23)c1 [Compound 45]
- IC50 (recombinant AtCKX2): 22.1 µM
- EC50 (CRE1/AHK4): > 50 µM
- EC50 (AHK3): 42.1 µM
- Activity (%) [10^−5 mol · l^−1 K = 100%] [2]: 105.1%
- Activity (%) [10^−5 mol · l^−1 K = 100%] [3]: 127.9%

SMILES: Nc1nc(Nc2ccc(O)cc2)c2nc[nH]c2n1 [Compound 73]
- GI50 [4]: > 167 µM
- EC50 (CRE1/AHK4): > 50 µM
- EC50 (AHK3): > 50 µM
- GI50 (NIH-3T3 (fibroblasts); Mus musculus, NIH3T3, 72 hours): > 167 µM
- GI50 ([5]; Homo sapiens, MCF7, 72 hours): > 167 µM

SMILES: Nc1ncnc2nc[nH]c12 [adenine, reference compound]
- GI50 [6]: > 167 µM
- GI50 (NIH-3T3 (fibroblasts); Mus musculus, NIH3T3, 72 hours): > 167 µM
- GI50 ([7]; Homo sapiens, HL-60, 72 hours): > 167 µM
- GI50 ([8]; Homo sapiens): > 167 µM
- GI50 ([5]; Homo sapiens, MCF7, 72 hours): > 167 µM

SMILES: C/C(=C\CNc1ncnc2nc[nH]c12)CO [trans-zeatin, reference compound]
- EC50 (CRE1/AHK4): 0.9 µM
- EC50 (AHK3): 2.1 µM
- GI50 (NIH-3T3 (fibroblasts); 72 hours): > 167 µM
- GI50 ([7]; 72 hours): > 167 µM
- GI50 [8]: > 167 µM
- GI50 ([5]; 72 hours, read-out: GI50 MCF7): > 167 µM
